# Results published in PubChem BioAssay (NCI).
#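 48-hour exposure; five concentrations; linearly interpolated endpoints. At the GI50, growth is halved. TGI: concentration producing complete growth inhibition.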
# Tests used:
# Test in all cases: NCI tumour cell line growth inhibition, 48 h
# DLD-1 colon = tested on: DLD-1 colon
# DMS 273 small cell lung = tested on: DMS 273 small cell lung
# KM20L2 colon = tested on: KM20L2 colon
# LXFL 529 NSCLC = tested on: LXFL 529 NSCLC
# M19-MEL melanoma = tested on: M19-MEL melanoma
# RXF-631 renal = tested on: RXF-631 renal
# XF 498 CNS = tested on: XF 498 CNS
# HOP-18 NSCLC = tested on: HOP-18 NSCLC
# MDA-N = tested on: MDA-N
# P388 leukemia = tested on: P388 leukemia
# SN12K1 renal = tested on: SN12K1 renal
SMILES,TGI (DLD-1 colon) [µM],TGI (DMS 273 small cell lung) [µM],TGI (KM20L2 colon) [µM],TGI (LXFL 529 NSCLC) [µM],TGI (M19-MEL melanoma) [µM],TGI (RXF-631 renal) [µM],TGI (XF 498 CNS) [µM],TGI (HOP-18 NSCLC) [µM],TGI (MDA-N) [µM],GI50 (DLD-1 colon) [µM],GI50 (HOP-18 NSCLC) [µM],GI50 (KM20L2 colon) [µM],GI50 (LXFL 529 NSCLC) [µM],GI50 (M19-MEL melanoma) [µM],TGI (P388 leukemia) [µM],TGI (SN12K1 renal) [µM],GI50 (DMS 273 small cell lung) [µM],GI50 (RXF-631 renal) [µM],GI50 (XF 498 CNS) [µM]
CC1(c2cccc3ccccc23)OC(=O)c2ccccc21 (configuration not stated),75.2,28.6,35.7,> 100,51.3,70.7,45.2,–,–,–,–,–,–,–,–,–,–,–,–
O=C(CO)CC(=O)C(=O)Nc1ccccc1,> 100,> 100,> 100,> 100,> 100,> 100,–,> 100,–,–,–,–,–,–,–,–,–,–,–
N#C/C(=C/c1ccc[nH]1)P(=O)(O)O,> 100,> 100,> 100,> 100,> 100,–,> 100,–,–,–,–,–,–,–,–,–,–,–,–
CC(=O)[C@@]1(O)CC[C@H]2[C@@H]3C[C@H](C)C4=CC(=O)CC[C@]4(C)[C@H]3[C@@H](O)C[C@@]21C,–,–,–,–,–,–,–,–,> 100,–,–,–,–,–,–,–,–,–,–
Clc1cc(Cc2cc(Cl)c(Cl)c3c2OCOC3)c2c(c1Cl)COCO2,> 100,> 100,> 100,> 100,> 100,–,–,97.9,–,–,–,–,–,–,–,–,–,–,–
COc1ccc2c(=O)c3ccoc3n(CC=C(C)C)c2c1,–,–,–,–,–,–,–,–,> 100,–,–,–,–,–,–,–,–,–,–
N#CC(C(=O)CCC(=O)C(C#N)c1ccccc1)c1ccccc1 (configuration not stated),> 100,> 100,–,> 100,> 100,–,> 100,> 100,–,–,–,–,–,–,–,–,–,–,–
CCOc1ccccc1NC(=O)CC1SC(=Nc2ccc([N+](=O)[O-])cc2)NC1=O (configuration not stated),59,–,42.2,39.9,64.4,–,32.4,51.1,–,–,–,–,–,–,–,–,–,–,–
COC(=O)/C([Se]c1c(C)cc(C)cc1C)=C(\[Se]c1c(C)cc(C)cc1C)C(=O)OC,> 100,> 100,> 100,> 100,> 100,> 100,–,> 100,–,–,–,–,–,–,–,–,–,–,–
O=C1NC(=O)C2C(=O)NC(=O)C1C2(c1ccccc1)c1cc[nH]c1 (configuration not stated),> 100,> 100,–,> 100,> 100,–,> 100,–,–,–,–,–,–,–,–,–,–,–,–
N#CC(C(=O)/C(=N/N)C(C#N)c1ccccc1)c1ccccc1 (configuration not stated),> 100,–,–,> 100,> 100,> 100,> 100,> 100,–,–,–,–,–,–,–,–,–,–,–
O=NNc1ccc(S(=O)(=O)c2ccccc2)cn1,–,–,–,–,–,–,–,–,> 100,–,–,–,–,–,–,–,–,–,–
N[C@@H]1CCCC[C@H]1N.O=C([O-])C(=O)[O-].[Pt+4],> 100,–,24.2,> 100,> 100,–,–,> 100,–,3.46,34.3,0.263,2.36,1.18,–,–,–,–,–
N/C(=C\c1ccc(OCc2ccccc2)c(OCc2ccccc2)c1[N+](=O)[O-])C(=O)O,> 100,> 100,> 100,> 100,> 100,–,–,> 100,–,–,–,–,–,–,–,–,–,–,–
Oc1cc(O)c2c(-c3c(O)c(-c4ccc(O)c(O)c4)[o+]c4cc(O)cc(O)c34)c(O)c(-c3ccc(O)c(O)c3)[o+]c2c1,> 100,> 100,> 100,> 100,> 100,> 100,87.6,36.4,–,–,–,–,–,–,–,–,–,–,–
Cc1cc2nc(CCC(=O)O)c(=O)[nH]c2cc1C,> 100,–,> 100,> 100,> 100,> 100,> 100,> 100,–,–,–,–,–,–,–,–,–,–,–
Nc1ncnc2c1nc(Cl)n2C1OC2COP(=O)(O)OC2C1O (configuration not stated),> 194,> 222,> 300,–,> 300,–,–,> 300,> 300,–,–,–,–,–,> 300,> 300,–,–,–
CC(=O)[CH-]C(=O)c1ccccc1.CC(=O)[CH-]C(=O)c1ccccc1.[Eu+3].[OH-].[OH3+],–,–,> 100,> 100,> 100,–,–,> 100,–,–,> 100,> 100,> 100,> 100,–,–,–,–,–

SMILES,TGI (DLD-1 colon) [µM],TGI (DMS 273 small cell lung) [µM],TGI (KM20L2 colon) [µM],TGI (LXFL 529 NSCLC) [µM],TGI (M19-MEL melanoma) [µM],TGI (RXF-631 renal) [µM],TGI (XF 498 CNS) [µM],TGI (HOP-18 NSCLC) [µM],TGI (MDA-N) [µM],GI50 (DLD-1 colon) [µM],GI50 (HOP-18 NSCLC) [µM],GI50 (KM20L2 colon) [µM],GI50 (LXFL 529 NSCLC) [µM],GI50 (M19-MEL melanoma) [µM],TGI (P388 leukemia) [µM],TGI (SN12K1 renal) [µM],GI50 (DMS 273 small cell lung) [µM],GI50 (RXF-631 renal) [µM],GI50 (XF 498 CNS) [µM]
CCOC(=O)N1CCc2cc(OC)c(OC)c3c2c1cc1cc(OC)c(OC)cc13,> 100,> 45.2,7.16,> 100,> 100,66,69,> 100,0.599,–,–,–,–,–,–,–,–,–,–
CCC1(c2c(F)c(F)c(N)c(F)c2F)CCC(=O)NC1=O (configuration not stated),> 100,> 100,–,> 100,> 100,–,> 100,> 100,–,–,–,–,–,–,–,–,–,–,–
O=[N+]([O-])c1nccn1CC(O)CN1CC1 (configuration not stated),> 100,> 100,> 100,> 100,> 100,> 100,> 100,> 100,–,–,–,–,–,–,–,–,–,–,–
CN(C)c1ccc([O][Bi]([Cl])[Cl])cc1,> 100,> 100,> 100,–,> 100,> 100,> 100,> 100,–,> 100,> 100,> 100,–,> 100,–,–,> 100,30.7,80.6
Cc1ccccc1C(=O)c1ccccc1O,> 100,> 100,> 100,> 100,> 100,> 100,> 100,> 100,–,–,–,–,–,–,–,–,–,–,–
COC(=O)C(=O)OC1(C(C)=O)CC2(c3ccccc3)OC1(c1ccccc1)c1ccccc12 (configuration not stated),36.4,30,30.7,49.2,31.1,> 100,30.5,84.5,–,–,–,–,–,–,–,–,–,–,–
CC(=O)[CH-]C(=O)c1ccccc1.CC(=O)[CH-]C(=O)c1ccccc1.CC1(C)C2CCC1(C)C([O-])C2.CC1(C)C2CCC1(C)C([O-])C2.[Ti+4],> 100,–,> 100,> 100,> 100,–,–,> 100,–,29.2,36.6,60,23.7,24.4,–,–,–,–,–
CC1(CO)OC(n2cc(C(=O)NC(=O)OCc3ccccc3)c(=O)[nH]c2=O)CC1O (configuration not stated),> 100,> 100,> 100,> 100,> 100,> 100,> 100,> 100,–,–,–,–,–,–,–,–,–,–,–
CCCCCCCCCCCCCC(=O)CC(=O)c1c(O)cccc1O,> 100,41.1,> 100,> 100,> 100,–,51.2,> 100,–,–,–,–,–,–,–,–,–,–,–
N#Cc1c(NN)nc(NN)c(C#N)c1-c1ccccc1,> 100,> 100,> 100,> 100,> 100,> 100,> 100,> 100,–,–,–,–,–,–,–,–,–,–,–
CC(=O)[CH-]C(=O)c1ccccc1.CC(=O)[CH-]C(=O)c1ccccc1.CC(C)CCCC(C)[C@H]1CCC2[C@@H]3CC=C4C[C@@H]([O-])CC[C@]4(C)C3CC[C@@]21C.CC[O-].[Ti+4] (some centres not stated),> 100,–,> 100,> 100,–,–,–,> 100,–,93.7,76,67.8,33.1,–,–,–,–,–,–
O=c1cc2ccccc2nn1Cc1cccc(Cl)c1,> 100,> 100,> 100,–,> 100,> 100,94.5,> 100,–,–,–,–,–,–,–,–,–,–,–
C[S+](C)CCOC(=O)C(=[N+]=[N-])c1ccc([N+](=O)[O-])cc1,–,> 100,> 100,> 100,> 100,> 100,> 100,> 100,–,–,–,–,–,–,–,–,–,–,–
COc1c(OC)c(OC)c2c(c1OC)c(=O)c1ccccc1n2C,–,–,–,–,–,–,–,–,> 100,–,–,–,–,–,–,–,–,–,–
CCCCCC/C=C1\CCC(CN2CCCC2)C1=O (configuration not stated),18,25.5,41.3,11.4,25.6,42.2,31.4,32.9,–,–,–,–,–,–,–,–,–,–,–
CC(C)c1ccc(C2C3=C(N=C4SCC(=O)N42)C(=O)c2ccccc23)cc1 (configuration not stated),> 100,> 100,> 100,> 100,> 100,> 100,> 100,–,–,–,–,–,–,–,–,–,–,–,–
O=C(CC1(O)C(=O)Nc2c(Cl)ccc(Cl)c21)c1ccc2ccccc2c1 (configuration not stated),59,> 100,62.1,21.8,7.82,–,25.4,37.2,–,–,–,–,–,–,–,–,–,–,–
